# PMC12303383, “The heme-regulated inhibitor kinase Hri1 is activated in response to aminolevulinic acid deficiency in Schizosaccharomyces pombe” (PLOS Genetics, 2025)
# Tests used:
# Hri2 = target: T1, Hri2 (Schizosaccharomyces pombe, UniProt Q9UTE5); assay: differential absorbance spectral titration (Soret peak, […] nm) with purified protein; assay type: binding
# T1 construct: MBP-tagged wild-type Hri2 expressed in E. coli, dephosphorylated with lambda phosphatase
# T1 sequence (Q9UTE5 1-639): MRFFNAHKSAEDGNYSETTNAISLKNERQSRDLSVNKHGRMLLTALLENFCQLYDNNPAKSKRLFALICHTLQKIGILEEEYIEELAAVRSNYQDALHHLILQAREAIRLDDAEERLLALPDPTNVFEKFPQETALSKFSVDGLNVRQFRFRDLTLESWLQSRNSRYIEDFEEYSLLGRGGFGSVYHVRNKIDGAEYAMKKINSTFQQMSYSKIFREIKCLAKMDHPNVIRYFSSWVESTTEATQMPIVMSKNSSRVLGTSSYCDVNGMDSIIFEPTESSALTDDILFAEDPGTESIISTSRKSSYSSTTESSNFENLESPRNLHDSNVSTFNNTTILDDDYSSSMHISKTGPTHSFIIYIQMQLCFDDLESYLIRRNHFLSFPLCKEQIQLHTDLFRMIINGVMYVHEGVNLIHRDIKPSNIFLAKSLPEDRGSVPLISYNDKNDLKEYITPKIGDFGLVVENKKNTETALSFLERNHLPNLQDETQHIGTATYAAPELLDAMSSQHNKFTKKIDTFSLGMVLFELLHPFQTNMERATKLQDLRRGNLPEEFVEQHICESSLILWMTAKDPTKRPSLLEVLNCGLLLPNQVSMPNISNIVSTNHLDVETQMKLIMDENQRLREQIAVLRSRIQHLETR
# [1] = target: T2, Hri1 (heme-regulated inhibitor kinase 1) (Schizosaccharomyces pombe, UniProt O13889); assay: as above; assay type: binding
# T2 construct: MBP-tagged wild-type Hri1 expressed in E. coli, dephosphorylated with lambda phosphatase
# T2 sequence (O13889 1-704): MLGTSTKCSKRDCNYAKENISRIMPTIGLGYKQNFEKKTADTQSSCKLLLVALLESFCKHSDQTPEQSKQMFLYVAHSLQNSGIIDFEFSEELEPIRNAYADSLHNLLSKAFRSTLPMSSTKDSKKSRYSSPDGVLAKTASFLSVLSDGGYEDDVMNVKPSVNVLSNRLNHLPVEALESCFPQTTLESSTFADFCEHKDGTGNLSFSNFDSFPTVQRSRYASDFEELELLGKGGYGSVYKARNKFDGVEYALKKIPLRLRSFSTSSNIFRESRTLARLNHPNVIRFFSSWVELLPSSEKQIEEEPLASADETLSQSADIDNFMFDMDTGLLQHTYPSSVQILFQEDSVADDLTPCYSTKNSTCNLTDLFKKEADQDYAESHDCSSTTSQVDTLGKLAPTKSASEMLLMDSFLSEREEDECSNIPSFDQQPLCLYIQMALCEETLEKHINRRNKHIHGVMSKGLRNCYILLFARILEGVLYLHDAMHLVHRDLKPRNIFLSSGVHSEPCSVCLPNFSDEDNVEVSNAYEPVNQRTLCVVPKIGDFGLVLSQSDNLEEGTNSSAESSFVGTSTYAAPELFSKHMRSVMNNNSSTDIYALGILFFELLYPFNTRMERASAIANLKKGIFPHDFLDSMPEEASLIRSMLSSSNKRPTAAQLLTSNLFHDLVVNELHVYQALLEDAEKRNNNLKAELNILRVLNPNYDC
smiles,measurement,setting,value
C=CC1=C(C)C2=Cc3c(C=C)c(C)c4[n]3[Fe]([Cl])[n]3c(c(C)c(CCC(=O)O)c3=CC3=NC(=C4)C(C)=C3CCC(=O)O)=CC1=N2 [hemin],Kd,Hri2,1050 nM
same,Kd,[1],110 nM
